“And” between values parts separate entries of the source, which are not always exact repeats. Equal entries are not always repeated.
Columns and labels:
[1] = human skin permeation of cannabidiol with permeation enhancers; format: in vitro ADME; conditions: enhancer 6% v/v
Text: The aim of the experiment was to evaluate the effect of permeation enhancers on human skin permeation of cannabidiol (CBD). The following permeation enhancers were used in the study: • LAUROGLYCOL 90-(Propylene glycol monolaurate 90%)-LG-90 • TRANSCUTOL HP (Purified diethylene glycol monoethyl ether)-TC-HP • LABRAFIL® M 1944 CS (Oleoyl Macrogolglycerides)-LF • LABRASOL® (Caprylocaproyl Macrogolglycerides)-LB • SUPER REFINED® NOVOL NF (Oleyl Alcohol)-OA
A high-pressure liquid chromatography (HPLC) assay was used for the analysis of CBD in the samples. The HPLC system consisted of a Waters 717 plus Autosampler, Waters 1525 Binary HPLC Pump and Waters 2487 Dual λ Absorbance Detector with Waters Breeze software. A Brownlee C-18 reversed-phase Spheri-5 μm column (220×4.6 mm) with a C-18 reversed phase 7 μm guard column (15×3.2 mm) was used with the UV detector set at a wavelength of 215 nm. The mobile phase was comprised of acetonitrile: 25 mM phosphate buffer with 0.1% triethylamine pH 3.0 (80:20). The flow rate of the mobile phase was […] and 100 μL of the sample was injected onto the column.
Human skin harvested during abdominoplasty was used for the diffusion studies. Skin sections were obtained by using a Padgett Instruments® dermatome set to 250 microns and stored at −20° C. […] Trans-epidermal water loss was measured (Evaporimeter EP1™, ServoMed, Sweden) after securing the skin in the cells. Pieces of skin with readings below 10 g/m^2/h were used for the diffusion studies. […] An excess quantity of CBD was added to the donor vehicle (propylene glycol:Hanks' buffer (80:20)) solution with and without permeation enhancers at 6% v/v, sonicated for 10 min, and then applied onto the skin. Excess quantity of the drug was used in the donor compartment throughout the diffusion experiment in order to maintain maximum and constant chemical potential of the drug in the donor vehicle. […]
Drug disposition in the skin samples was measured at the completion of the 48 h experiment. […] Samples were analyzed by HPLC to determine CBD content in […] (pmol) of drug per gram of wet tissue weight. […]

[2] = plasma THC and CBD concentrations after separate and co-administration
[3] = in vitro permeation of Δ^9-tetrahydrocannabinol across human skin with various receiver solutions
[4] = full-thickness human skin, Touitou et al. 1988; cited from earlier work
[5] = skin permeation study of WIN 55,212-2 in flow-through diffusion cells; format: in vitro ADME, human
Method: The skin permeation study was carried out using skin excised during abdominal reduction surgery. The skin sample was harvested from the abdomen using a Padgett dermatome set to 250 μm; the skin sample was frozen at −20° C. for one week. The frozen skin sample was thawed and used at the 250 μm split-thickness for the diffusion study. Three PermeGear In-Line Flow Cells were used for the skin permeation study. The receiver fluid was 6% BRIJ® 98 (Polyoxyethylene 20 Oleyl Ether), in order to increase the partitioning of this extremely lipophilic drug into the receiver. The receiver fluid was pumped through the diffusion cells at a rate of one milliliter per hour. The receiver samples were refrigerated until HPLC analysis. The temperature of the diffusion cells was maintained at 32° C. with a circulating water bath. The diffusion experiment was initiated by charging the donor compartment with 0.25 mL of WIN 55,212-2 Mesylate in propylene glycol (50 mg/mL).
Samples were analyzed using a HPLC system which consisted of a Waters 717 Autosampler, 501 Pumps, and a 484 Tunable UV Absorbance Detector with Millennium Chromatography Software. A reversed phase Beckman 5 μm particle 4.6 mm×25 cm C-18 column was used with the UV detector set at a wavelength of 215 nm. The mobile phase consisted of 0.05 M monobasic potassium phosphate:acetonitrile (300 mL:700 mL) at a flow rate of 2 mL/min.
Skin permeation data were plotted as the cumulative amount of drug collected in the receiver compartment as a function of time. The lag times and steady-state fluxes were calculated using the terminal, linear portions of these curves. The slopes (Js) through these curves were determined using linear regression analysis. In all cases, the coefficients of determination for the lines were >0.99.
Lag times were determined by extrapolating the steady-state curves to the X-axis. The permeability coefficient was calculated from Fick's law of diffusion: […]

Structure (SMILES): C=C(C)C1CCC(C)=CC1c1c(O)cc(CCCCC)cc1O (centres unmarked) [CBD, 2-[3-methyl-6-(1-methylethenyl)-2-cyclohexen-1-yl]-5-pentyl-1,3-benzenediol]
- Cumulative amount permeated at 48 h ([1]; 48 h): 193.21 ± 22.77 nmol and 338.11 ± 73.09 nmol
- Lag Time ([1]; donor propylene glycol:Hanks' buffer (80:20)): 14.19 ± 1.59 h and 9.43 ± 2.47 h
- Flux ([1]; steady state, donor propylene glycol:Hanks' buffer (80:20) with excess CBD, receiver with 40% PEG 400, 32° C.): 9.16 ± 1.41 nmol/cm^2/h
- cannabidiol plasma concentration, coadministered with THC vs alone ([2]; FIG. 12): higher both initially and over time when coadministered

Structure (SMILES): CCCCCc1cc(O)c2c(c1)OC(C)(C)[C@@H]1CCC(C)=C[C@@H]21 [Δ^9-tetrahydrocannabinol]
- THC plasma concentration, coadministered with cannabidiol vs alone ([2]; FIG. 11): higher both initially and over time when coadministered
- permeability difference of tape stripped skin relative to intact skin ([3]; 6% BRIJ 98 receiver solution): six fold
- permeability enhancement with 6% BSA relative to 4% BSA ([3]; four subjects, except subject 3): 20-50%
- mean lag time ([3]; intact skin): 18.0 ± 3.4 h
- permeability in presence of BRIJ 98 solution relative to BSA solution ([3]; receiver BRIJ 98 (6%) vs BSA (4%), five subjects, except subject 4): 2-5 fold
- mean lag time ([3]; stripped skin): 7.8 ± 3.9 h
- permeability with 6% BRIJ 98 vs 0.5% BRIJ 98 receiver solution ([3]; three subjects, differences not statistically significant): similar
- permeability of tape stripped skin relative to intact skin ([3]; various receiver solutions): 2-3 times

Structure (SMILES): CCCCCc1cc(O)c2c(c1)OC(C)(C)[C@@H]1CC=C(C)C[C@@H]21 [Δ^8-THC, Δ^8-tetrahydrocannabinol]
- flux rate [4]: 3.5 μg/cm^2/hr
- permeability coefficient [4]: 0.036 ×10⁻⁶ cm/s

Structure (SMILES): Cc1c(C(=O)c2cccc3ccccc23)c2cccc3c2n1[C@H](CN1CCOCC1)CO3 [WIN 55,212-2, (R)-(+)-[2,3-dihydro-5-methyl-3-(4-morpholinylmethyl)-pyrrolo[1,2,3-de]-1,4-benzoxazin-6-yl]-1-naphthalenyl-methanone]
- diffusion lag time ([5]; 250 μm split-thickness skin, donor 50 mg/mL in propylene glycol, receiver 6% BRIJ 98, 32° C., 48 h): 24 h
- drug depletion from the donor compartment ([5]; 48 h, donor not saturated): < 1%
- mean flux ([5]; steady state, donor 50 mg/mL in propylene glycol, receiver 6% BRIJ 98, n=3): 2.6 μg/cm^2/h
